{"source": "paper PMC8959600", "about": "(eLife, 2022)", "key": {"S. flexneri 2457T [1]": {"system": "S. flexneri 2457T", "experiment": "Gnotobiotic piglet Shigella infection model, efficacy", "type": "in vivo", "settings": "6-day experiment"}, "[2]": {"settings": "paediatric population, Tebipenem-Pivoxil PO; ref Sato et al., 2008; cited from earlier work"}, "S. flexneri EG478": {"system": "S. flexneri EG478", "experiment": "Solid medium test at 10 µM and dose-response MIC against MDR clinical isolate", "type": "cell-based, Shigella flexneri", "description": "(§1) The confirmed hit list was narrowed by applying the following filters: a 30% cut-off value, absence of undesirable structural features (e.g. electrophiles, peroxides, and Michael acceptors) and reduced physicochemical risk (maximum five aromatic rings and PFI <8)([Leeson and Young, 2015]). […] Briefly, the selected bacteria were cultured on the Luria-Bertani agar overnight at 37 °C (Campylobacter isolates were grown in 2.5% Laked Horse Blood cation-adjusted Mueller Hinton medium (CAMHB, Sigma Aldrich) and incubated in microaerophilic conditions (10% CO2, 5% O2 and 85% N2) at 42 °C); colonies were added to sterile PBS to form 0.5 McFarland solutions. All chemical testing was performed at an initial concentration of 10 μM. Bacterial suspensions were evenly spread on Mueller-Hinton agar by sterile cotton swabs (Medical Wire – MWE). […] Plates were incubated overnight at 37 °C. The activity of the chemical was recorded as being active (yes) or non-active (no) for each of the tested chemicals.\n(§2) MICs were evaluated using the micro dilution assay in Müller Hinton broth using 1 mM chemical stock solutions, and a final concentration of 5 × 10^5 CFU/mL bacteria. Twofold serial dilutions were prepared in 96-well plates at concentration ranging from 1 μM to 7.8 nM. 100 μL bacteria were added and incubated at 37 °C overnight; 10 μl of each solution was dropped onto Luria-Bertani agar and incubated overnight at 37 °C for the detection of bacterial growth. Results were interpreted as minimal concentration necessary to inhibit growth."}, "Shigella (Sf2457T)": {"system": "Shigella (Sf2457T)", "experiment": "Checkerboard synergy assay (FIC), laboratory isolate", "type": "cell-based, Shigella flexneri", "description": "Before initiating drug combination assays, the MIC values for both compounds were determined against Shigella (Sf2457T), Salmonella (St14028), and E. coli (EcDH5a) isolates. […] 20 μM moxifloxacin was used as negative control (100% bacterial growth inhibition) in one column and DMSO as positive control (100% bacterial growth). A total of 25 µl of 1 × 10^6 CFU/mL bacterial culture was added to each well of a 384-well plate (μClear; Greiner Bio‐One). Plates were incubated overnight at 37 °C. Next, 10 µl of resazurin were added and plates were incubated at room temperature for 3 hr. Bacterial growth inhibition was measured by fluorescence in a Envision plate reader (PerkinElmer). All assays were performed in duplicate. Combination studies with clinical isolates were performed in 96-well plates (Greiner) adding 200 μl of 1 × 10^6 CFU/mL bacterial culture and following the same checkboard titration method as described above. The range of final working concentrations of each antimicrobial was adjusted based on the MIC of each selected organism.\nMICs were determined for drug A and drug B alone and in combination. […] The sum of FIC was expressed using the following equation: FIC = (MIC of drug A in combination / MIC of drug A alone) + (MIC of drug B in combination / MIC of drug B alone) ([Le Minh et al., 2015]; [Petersen et al., 2006]; [Hall et al., 1983]; [European Committee for Antimicrobial Susceptibility Testing (EUCAST) of the European Society of Clinical Microbiology and Infectious Dieases (ESCMID), 2000])."}, "S. flexneri 2457T [3]": {"system": "S. flexneri 2457T", "experiment": "microbe, parasite or virus in culture", "type": "cell-based, Shigella flexneri", "description": "Bacterial inoculum without drug was used as positive control. The bacteria inoculum (1 × 10^5 CFU/mL) for the assay was prepared by diluting a log phase incubated at 37 °C for 3–4 hr. Mueller Hinton agar plates were prepared containing 4xMIC and 10xMIC and inoculated with different concentrations of bacteria (1 × 10^9, 1 × 10^8, and 1 × 10^7 CFU/mL). Plates were prepared in duplicate and incubated overnight at 37 °C. The frequency of spontaneous resistant mutants was calculated by using the formula: FoR = resistant CFUs/inoculum CFUs. The mean of the two plates was reported."}, "S. sonnei 02–1181": {"system": "S. sonnei 02–1181", "experiment": "Solid medium test at 10 µM and dose-response MIC against MDR clinical isolate", "type": "cell-based, Shigella sonnei", "description": "as §1, §2"}, "[4]": {"experiment": "Intestinal distribution by quantitative LC-MS in mice", "type": "in vivo", "settings": "for peak drug concentration: mice, oral 50 mg/kg Tebipenem pivoxil", "description": "One animal was euthanised at 0.25, 0.5, 1, and 4 hr respectively and 2.5–3 cm sections of the intestine (duodenum, jejunum, ileum, caecum, and colon) were collected and frozen at –80 °C. For quantitative LCMS analysis of intestine homogenate, samples were thawed at ambient temperature, mixed with water (1:1) and homogenised by turrax (10 sec). Subsequently, 20 µL of homogenate were mixed with 200 µl of ACN: MeOH (80:20) and filtered using 0.2 µm filter plate (Whatman). LCMS analysis was performed as described in previous section. For MALDI imaging, 50 mm of the central part of each intestinal section were cut and mounted in a sample disc on dry ice with a solution of 1% methylcellulose (Sigma Aldrich, UK). Next, tissue sections of 12 µm (sagital sections) were obtained using a cryostat (Leica CM3600; Leica Microsystems Inc, Wetzlar, Germany) at –20 °C and collected in conductive-coated slides for MALDI Imaging (Bruker Daltonic). After the ‘MALDI’ section was obtained a consecutive section for histology was taken. Prior to matrix coating, samples for MALDI were optical scanned in a PathScanner. The matrix deposition was conducted in a sprayer ImagePrep System (Bruker Daltonic) which uses vibrational vaporisation technology. As matrix solution α-CHCA (α-Cyano-4-hydroxycinnamic acid (Sigma Aldrich) dissolved in 70:30 methanol/water (v/v) containing 0.2% TFA at 7 mg/mL was used. MALDI MSI data were obtained using a Bruker UltrafleXtream MALDI TOF/TOF (Bruker Daltonic, Germany))."}, "[5]": {"settings": "in combination with LpxC inhibitor PF-5081090"}, "[6]": {"settings": "female, C57, mouse, duodenum and jejunum, po, 50 mg/kg, read-out: concentration in tissue"}}, "data": [{"smiles": "C[C@@H](O)[C@H]1C(=O)N2C(C(=O)O)=C(SC3CN(C4=NCCS4)C3)[C@H](C)[C@H]12", "note": "[Tebipenem]", "values": [{"measurement": "weight gain vs vehicle-treated piglets", "setting": "S. flexneri 2457T [1]", "result": "not statistically significant"}, {"measurement": "AUC0-tlast", "setting": "[2]", "result": 16000, "unit": "ng·h/mL"}, {"measurement": "Cmax", "setting": "[2]", "result": 7500, "unit": "ng/mL"}, {"measurement": "bactericidal activity", "setting": "S. flexneri EG478; MDR clinical isolate S. flexneri EG478", "result": "greatest bactericidal activity"}, {"measurement": "MIC range", "setting": "S. flexneri EG478; range over S. flexneri EG478 and S. sonnei 02-1181", "result": "0.08 to 0.15", "unit": "µg/mL"}, {"measurement": "interaction (FIC index)", "setting": "Shigella (Sf2457T); [5]", "result": "partial synergy"}, {"measurement": "reduction of the MIC against Tebipenem", "setting": "Shigella (Sf2457T); [5]", "result": "> 10", "unit": "fold"}, {"measurement": "interaction (FIC index)", "setting": "Shigella (Sf2457T); in combination with azithromycin", "result": "partial synergy"}, {"measurement": "interaction (FIC index)", "setting": "Shigella (Sf2457T); in combination with ceftriaxone", "result": "indifference or partial synergy"}, {"measurement": "interaction (FIC index)", "setting": "Shigella (Sf2457T); in combination with ciprofloxacin", "result": "indifference or partial synergy"}, {"measurement": "interaction (FIC index)", "setting": "Shigella (Sf2457T); in combination with mecillinam", "result": "indifference or partial synergy"}, {"measurement": "frequency of spontaneous resistance", "setting": "S. flexneri 2457T [3]; S. flexneri 2457T, 4 x and 10 x MIC", "result": "< 1.2 × 10^–9"}, {"measurement": "MIC", "setting": "S. flexneri 2457T [3]; Shigella flexneri, 2457T", "result": 0.02, "unit": "µM"}, {"measurement": "bactericidal activity", "setting": "S. sonnei 02–1181", "result": "greatest bactericidal activity"}, {"measurement": "concentration at 15 min", "setting": "[4]; [6]", "result": "> 300000", "unit": "ng/g"}, {"measurement": "concentration at 240 min", "setting": "[4]; [6]", "result": "> 400", "unit": "ng/g"}, {"measurement": "peak drug concentration", "setting": "[4]; caecum, after 60 min", "result": 11, "unit": "µg/g tissue"}, {"measurement": "peak drug concentration", "setting": "[4]; colon, after 60 min", "result": 6, "unit": "µg/g tissue"}, {"measurement": "peak drug concentration", "setting": "[4]; ileum, after 30 min", "result": 15, "unit": "µg/g tissue"}]}]}
